Experiments:
physchem [1] = conditions: octanol/water, pH 7.4, logD
physchem [2] = test: physchem
Description: Ionization constant (pKa)

[3] = target: Beta-2 adrenergic receptor (Cavia porcellus) (UniProt Q8K4Z4)
Description: In vitro beta-2 duration was determined using electrically stimulated guinea-pig isolated trachea superfusion system

[4] = target: Beta-2 adrenergic receptor (Cavia porcellus) (UniProt Q8K4Z4); conditions: Trachea
Description: Beta-2-adrenoceptor potency was determined in rings of guinea-pig isolated trachea

Chain of Beta-2 adrenergic receptor (Cavia porcellus) (Q8K4Z4 whole entry, looked up): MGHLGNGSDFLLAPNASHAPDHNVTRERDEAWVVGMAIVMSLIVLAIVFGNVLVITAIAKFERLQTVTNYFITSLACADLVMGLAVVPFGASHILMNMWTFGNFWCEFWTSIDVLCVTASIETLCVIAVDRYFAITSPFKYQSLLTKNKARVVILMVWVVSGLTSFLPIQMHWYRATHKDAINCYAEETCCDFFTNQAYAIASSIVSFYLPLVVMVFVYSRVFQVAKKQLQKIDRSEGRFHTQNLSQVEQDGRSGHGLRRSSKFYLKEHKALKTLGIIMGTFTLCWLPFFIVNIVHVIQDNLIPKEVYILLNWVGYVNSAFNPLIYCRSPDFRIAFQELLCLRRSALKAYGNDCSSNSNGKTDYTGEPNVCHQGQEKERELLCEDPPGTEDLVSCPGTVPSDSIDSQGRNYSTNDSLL

| Structure (SMILES) | logD (physchem [1]) | pKa (physchem [2]) | Beta2 duration [3] | p[A]50 [4] |
| --- | --- | --- | --- | --- |
| O=S(=O)(CCCNCCc1ccc(O)c2nc(O)sc12)NCCSCCc1ccccc1 | 1.77 | > 8 | 180 min | – |
| Cc1cc(C)cc(CCOCCS(=O)(=O)NCCNCCc2ccc(O)c3nc(O)sc23)c1 | 2.59 | > 8 | > 180 min | – |
| O=S(=O)(CCCOCCc1cc2ccccc2o1)CCNCCc1ccc(O)c2nc(O)sc12 | 2.86 | < 8 | 160 min | – |
| Cc1ccc(CCOCCCS(=O)(=O)CCNCCc2ccc(O)c3nc(O)sc23)nc1 | 1.56 | < 8 | 40 min | – |
| O=S(=O)(CCCNCCc1ccc(O)c2nc(O)sc12)NCCOCCc1cccc(Cl)c1 | 1.92 | > 8 | 180 min | – |
| Cc1ccc(CCOCCNS(=O)(=O)CCCNCCc2ccc(O)c3nc(O)sc23)cc1 | 2.07 | > 8 | > 180 min | – |
| O=S(=O)(CCCOCCc1ccc(F)cc1)CCNCCc1ccc(O)c2nc(O)sc12 | – | < 8 | 67 min | 7.92 |
| COc1ccc(CCOCCCS(=O)(=O)CCNCCc2ccc(O)c3nc(O)sc23)cc1 | – | < 8 | 60 min | – |
| Cc1ccc(CCCOCCS(=O)(=O)CCCNCCc2ccc(O)c3nc(O)sc23)s1 | 2.41 | > 8 | > 180 min | – |
| CS(=O)(=O)Nc1ccc(CCOCCCS(=O)(=O)CCNCCc2ccc(O)c3nc(O)sc23)cc1 | 1.34 | < 8 | 40 min | – |
| N#Cc1ccc(CCOCCCS(=O)(=O)CCNCCc2ccc(O)c3nc(O)sc23)cc1 | 2 | < 8 | 40 min | – |
| O=S(=O)(CCCOCCc1nccc2ccccc12)CCNCCc1ccc(O)c2nc(O)sc12 | 2.35 | < 8 | 50 min | – |
| O=S(=O)(CCOCc1cccc2ccccc12)NCCCNCCc1ccc(O)c2nc(O)sc12 | 1.69 | > 8 | 180 min | – |
| Oc1nc2c(O)ccc(CCNCCCSCCOCCc3cccc4ccccc34)c2s1 | – | > 8 | > 180 min | 5.8 |
| CN(CCc1ccc(O)c2[nH]c(=O)sc12)CCN(C)C(=O)CCOCCc1ccccc1 | – | > 8 | – | – |
| CSc1cccc(CCOCCS(=O)(=O)CCCNCCc2ccc(O)c3nc(O)sc23)c1 | 1.63 | > 8 | 150 min | – |
| Cc1ncsc1CCOCCCS(=O)(=O)CCNCCc1ccc(O)c2nc(O)sc12 | 1.44 | < 8 | 40 min | – |
| CN(CCNCCc1ccc(O)c2[nH]c(=O)sc12)C(=O)CCOCCc1ccccc1 | 1.52 | > 8 | – | – |
| Cc1cc(C)cc(CCOCNS(=O)(=O)CCCNCCc2ccc(O)c3nc(O)sc23)c1 | – | > 8 | > 180 min | – |
| O=S(=O)(CCCNCCc1ccc(O)c2nc(O)sc12)NCCOCCSc1ccccc1 | 1.84 | > 8 | 180 min | – |
| O=S(=O)(CCCNCCc1ccc(O)c2nc(O)sc12)CCNCCc1ccccc1 | – | > 8 | 18 min | 7.88 |
| O=S(=O)(CCCNCCc1ccc(O)c2nc(O)sc12)NCCOCCc1ccc(F)cc1 | 1.57 | > 8 | 150 min | – |
| O=S(=O)(CCCNCCc1ccc(O)c2nc(O)sc12)NCCOCCc1cccc(C(F)(F)F)c1 | 2.62 | > 8 | > 180 min | – |
| Oc1nc2c(O)ccc(CCNCCCCCCOCCc3nccs3)c2s1 | – | > 8 | > 180 min | 7.78 |
| C[C@@H](Cc1ccccc1)OCCCS(=O)(=O)CCNCCc1ccc(O)c2nc(O)sc12 | 1.81 | > 8 | 180 min | – |
| C[C@@H](COCCCS(=O)(=O)CCNCCc1ccc(O)c2nc(O)sc12)c1ccccc1 | 2.32 | < 8 | 60 min | – |

Continued, values first:

| logD (physchem [1]) | pKa (physchem [2]) | Beta2 duration [3] | p[A]50 [4] | Structure (SMILES) |
| --- | --- | --- | --- | --- |
| – | > 8 | > 180 min | – | CCN(CCCOCCOCCc1ccccc1)CCc1ccc(O)c2nc(O)sc12 |
| – | – | > 180 min | – | CN(CCc1ccc(O)c2nc(O)sc12)CCN(C)C(=O)CCOCCc1ccccc1 |
| – | > 8 | > 180 min | – | CN(CCCOCCOCCc1ccccc1)CCc1ccc(O)c2nc(O)sc12 |
| – | > 8 | > 180 min | 7.8 | Oc1nc2c(O)ccc(CCNCCCCCOCCc3ccccc3)c2s1 |
| – | > 8 | 109 min | 8.12 | Oc1nc2c(O)ccc(CCNCCCCCCOCCc3ccccn3)c2s1 |
| 1.15 | > 8 | 60 min | – | O=S(=O)(CCCNCCc1ccc(O)c2nc(O)sc12)CCOCc1ccccc1 |
| – | > 8 | > 180 min | 7.32 | Oc1nc2c(O)ccc(CCNCCCSCCCOCCc3ccccc3)c2s1 |
| – | > 8 | > 180 min | – | CCCN(CCCOCCOCCc1ccccc1)CCc1ccc(O)c2nc(O)sc12 |
| – | > 8 | > 180 min | 7.58 | CC(C)(CCCCOCCc1ccccc1N)CNCCc1ccc(O)c2nc(O)sc12 |
| – | – | 116 min | 8.29 | CN(CCNCCc1ccc(O)c2nc(O)sc12)C(=O)CCOCCc1ccccc1 |
| – | > 8 | > 180 min | 8.42 | CC(C)(CCCCCOCCc1ccccc1)NCCc1ccc(O)c2nc(O)sc12 |
| – | > 8 | > 180 min | 8.08 | CC(CCCCCOCCc1ccccc1)NCCc1ccc(O)c2nc(O)sc12 (stereo not given) |
| – | > 8 | > 180 min | 7 | Oc1nc2c(O)ccc(CCNCCCCCOCCCc3ccccc3)c2s1 |
| 2.22 | > 8 | > 180 min | – | O=S(=O)(CCOCCCc1ccccc1)NCCNCCc1ccc(O)c2nc(O)sc12 |
| 1.24 | > 8 | 60 min | – | CN(CCCNCCc1ccc(O)c2nc(O)sc12)S(=O)(=O)CCOCCc1ccccc1 |
| 1.83 | > 8 | 180 min | – | O=S(=O)(CCCOCCc1ccccc1)NCCNCCc1ccc(O)c2nc(O)sc12 |
| – | > 8 | 140 min | 9.2 | NC(=O)Nc1ccc(CCOCCCCCCNCCc2ccc(O)c3nc(O)sc23)cc1 |
| – | < 8 | 160 min | – | Cc1ccccc1CCOCCCS(=O)(=O)CCNCCc1ccc(O)c2nc(O)sc12 |
| – | > 8 | > 180 min | 8.86 | CC(C)(CCCCOCCc1ccc(N)cc1)CNCCc1ccc(O)c2nc(O)sc12 |
| – | > 8 | > 180 min | 8.81 | Oc1ccc(CCOCCCCCCNCCc2ccc(O)c3nc(O)sc23)cc1 |
| – | < 8 | 40 min | – | O=S(=O)(CCCOCCNc1ccccc1)CCNCCc1ccc(O)c2nc(O)sc12 |
| – | > 8 | > 180 min | 8.39 | CC(C)(CCCCOCCc1cccc(N)c1)CNCCc1ccc(O)c2nc(O)sc12 |
| – | > 8 | > 180 min | 9.4 | Nc1ccc(CCOCCCCCCNCCc2ccc(O)c3nc(O)sc23)cc1 |
| – | > 8 | > 180 min | 6.35 | CC(C)(CCCCOCCc1ccc([N+](=O)[O-])cc1)CNCCc1ccc(O)c2nc(O)sc12 |
| 2.68 | < 8 | 120 min | – | O=S(=O)(CCCOCCSc1ccccc1)CCNCCc1ccc(O)c2nc(O)sc12 |

Source: ChEMBL document CHEMBL1145849, “QSAR and the rational design of long-acting dual D2-receptor/beta 2-adrenoceptor agonists” (J Med Chem, 2003)
